Legend:
[1] = target: T1, Kappa-type opioid receptor (Homo sapiens, UniProt P41145); experiment: Displacement of [3H]diprenorphine from human kappa opioid receptor expressed in CHO cells; format: cell-based
[2] = target: Delta-type opioid receptor (Mus musculus, UniProt P32300); experiment: Displacement of [3H]diprenorphine from mouse delta opioid receptor expressed in CHO cells; format: cell-based
[3] = target: Mu-type opioid receptor (Rattus norvegicus, UniProt P33535); experiment: Displacement of [3H]diprenorphine from rat mu opioid receptor expressed in CHO cells; format: cell-based
Sequence of Mu-type opioid receptor (P33535 whole entry): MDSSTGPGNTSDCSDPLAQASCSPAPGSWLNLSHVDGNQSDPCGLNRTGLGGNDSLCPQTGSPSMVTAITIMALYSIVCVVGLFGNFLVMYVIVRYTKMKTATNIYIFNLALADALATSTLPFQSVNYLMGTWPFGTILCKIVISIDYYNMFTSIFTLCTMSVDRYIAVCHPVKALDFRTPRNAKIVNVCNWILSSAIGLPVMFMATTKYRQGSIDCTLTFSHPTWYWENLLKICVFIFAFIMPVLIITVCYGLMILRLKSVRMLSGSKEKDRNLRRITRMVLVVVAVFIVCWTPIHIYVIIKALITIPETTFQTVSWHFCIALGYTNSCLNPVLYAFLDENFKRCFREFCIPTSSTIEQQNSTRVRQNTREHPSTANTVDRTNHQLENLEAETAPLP

[4] = target: T1, Kappa-type opioid receptor; experiment: Displacement of [3H]diprenorphine from human kappa opioid receptor expressed in CHO cells in presence of EGTA; format: cell-based
[5] = target: T1, Kappa-type opioid receptor; experiment: Agonist activity at human kappa opioid receptor expressed in CHO cells assessed as increase in […] [35S]GTPgammaS binding; format: functional, cell-based

Sequence of Delta-type opioid receptor (P32300 whole entry): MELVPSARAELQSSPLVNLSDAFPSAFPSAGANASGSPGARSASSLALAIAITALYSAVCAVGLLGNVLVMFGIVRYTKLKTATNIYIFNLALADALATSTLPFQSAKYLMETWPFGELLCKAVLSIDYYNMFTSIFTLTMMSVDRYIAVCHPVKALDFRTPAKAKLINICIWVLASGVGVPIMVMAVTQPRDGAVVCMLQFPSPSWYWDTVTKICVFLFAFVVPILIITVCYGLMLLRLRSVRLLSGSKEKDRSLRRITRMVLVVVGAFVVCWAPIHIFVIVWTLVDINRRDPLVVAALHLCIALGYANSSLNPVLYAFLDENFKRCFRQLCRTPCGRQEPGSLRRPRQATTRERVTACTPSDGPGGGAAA
T1 sequence (P41145 whole entry): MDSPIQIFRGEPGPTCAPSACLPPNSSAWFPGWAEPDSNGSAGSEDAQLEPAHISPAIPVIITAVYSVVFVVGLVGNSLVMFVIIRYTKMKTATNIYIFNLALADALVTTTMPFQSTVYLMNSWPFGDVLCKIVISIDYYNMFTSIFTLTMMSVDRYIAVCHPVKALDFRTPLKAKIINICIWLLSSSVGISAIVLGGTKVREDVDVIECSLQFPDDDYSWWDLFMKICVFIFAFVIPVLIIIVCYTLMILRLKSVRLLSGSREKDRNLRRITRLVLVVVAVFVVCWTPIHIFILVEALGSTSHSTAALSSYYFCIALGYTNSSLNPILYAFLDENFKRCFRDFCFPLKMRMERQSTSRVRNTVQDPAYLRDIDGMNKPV

COC(=O)[C@@H]1C[C@H](OC(C)=O)C(=O)[C@H]2[C@@]1(C)CC[C@H]1C(=O)O[C@H](c3nc(C)no3)C[C@]21C
> 1000 nM: Ki [1] | Ki [2] | Ki [3] | Ki [4] | EC50 [5]

COC(=O)[C@@H]1C[C@H](OC(C)=O)C(=O)[C@H]2[C@@]1(C)CC[C@H]1C(=O)O[C@H](c3cn(Cc4ccccc4)nn3)C[C@]21C
> 1000 nM: Ki [1] | Ki [2] | Ki [3]

COC(=O)[C@@H]1C[C@H](OC(C)=O)C(=O)[C@H]2[C@@]1(C)CC[C@H]1C(=O)O[C@H](c3cn(COC(=O)C(C)(C)C)nn3)C[C@]21C
> 1000 nM: Ki [1] | Ki [2] | Ki [3]

COC(=O)[C@@H]1C[C@H](OC(C)=O)C(=O)[C@H]2[C@@]1(C)CC[C@H]1C(=O)O[C@H](c3cn(C)nn3)C[C@]21C
> 1000 nM: Ki [1] | Ki [2] | Ki [3]

COC(=O)[C@@H]1C[C@H](OC(C)=O)C(=O)[C@@H]2[C@@]3(C)C[C@@H](c4c[nH]nn4)OC(=O)[C@H]3CC[C@]21C
> 1000 nM: Ki [1] | Ki [2] | Ki [3]

COC(=O)[C@@H]1C[C@H](OC(C)=O)C(=O)[C@H]2[C@@]1(C)CC[C@H]1C(=O)O[C@H](c3c[nH]nn3)C[C@]21C
> 1000 nM: Ki [1] | Ki [2] | Ki [3]

CCn1cc([C@@H]2C[C@]3(C)[C@H]4C(=O)[C@@H](OC(C)=O)C[C@@H](C(=O)OC)[C@]4(C)CC[C@H]3C(=O)O2)nn1
> 1000 nM: Ki [1] | Ki [2] | Ki [3]

From ChEMBL document CHEMBL1153907, “Synthesis and biological evaluation of C-12 triazole and oxadiazole analogs of salvinorin A” (Bioorg Med Chem Lett, 2009)
